Source: patent US10450322B2, “Low molecular weight derivatives of carboxamide halogenated porphyrins, namely chlorins and bacteriochlorins, and their applications thereof” (LUZITIN, S.A., priority 2015, dated 2019)

Legend:
[1] = Optical absorption (UV-Vis-NIR) in ethanol; format: physicochemical
Protocol: The UV-Vis-NIR optical absorption was recorded with an Agilent Cary5000 UV-Vis-NIR Spectrophotometer in the determination of the molar absorption coefficient and with Shimadzu UV-2100 spectrometer in routine measurements. The absorption spectra were recorded in the wavelengths from 300 nm up to 800 nm.
(§1) This is indicative of negligible aggregation between the molecules, which exist mostly as monomers at these concentrations in the solvents studied. Table 1 presents the infrared molar absorption coefficient (εmax) and wavelength maximum in ethanol of a typical carboxamide halogenated bacteriochlorin derivative of Formula (I). The same table also presents triplet lifetimes (τT) in air and N2 saturated solutions, fluorescence lifetime (τS), the quantum yields of fluorescence (ΦF), triplet state formation (ΦT), and singlet oxygen generation (ΦΔ) in ethanol, and photodegradation quantum yield (Φpd) in methanol:PBS (3:2). Triplet decays were clearly mono-exponential and in air-saturated ethanol the triplet lifetimes were in the range of 200 to 300 nanoseconds. Such values are consistent with diffusion limited energy transfer from the triplet state of the photosensitizer to molecular oxygen through a charge-transfer interaction (8). The absorption intensity of the test compounds in the photobleaching studies followed a mono-exponential decrease as a function of the illumination time.

[2] = Fluorescence emission, quantum yield and lifetime; format: physicochemical; conditions: in ethanol
Protocol: The fluorescence emission spectra were recorded in the homemade setup composed of a Horiba-Jobin Fluoromax 4, used to excite the samples, connected to a sample holder through an optical fiber. In the sample holder, perpendicular to excitation fiber, an optical fiber is connected to drive the emission light to the spectrophotometer detector Avantes model SensLine, provided with AvaSoft 7.7.2. The excitation slit was set at 2 mm and the integration time was 3 s, with average number of 3. The spectra were collected from 200 nm up to 1100 nm using standard cuvettes of 1 cm of optical path. Fluorescence quantum yields (ΦF) were obtained comparing the integrated fluorescence of the samples with that of a reference fluorimetric compound with known ΦF.
The fluorescence lifetime was determined in homemade equipment composed of a LED that produces a light pulse for exciting the sample, a sample holder, detector and optics. […]
This is indicative of negligible aggregation between the molecules, which exist mostly as monomers at these concentrations in the solvents studied. […] The same table also presents triplet lifetimes (τT) in air and N2 saturated solutions, fluorescence lifetime (τS), the quantum yields of fluorescence (ΦF), triplet state formation (ΦT), and singlet oxygen generation (ΦΔ) in ethanol, and photodegradation quantum yield (Φpd) in methanol:PBS (3:2). […]

[3] = Triplet-triplet transient absorption / photoacoustic calorimetry; format: physicochemical
Protocol: The triplet-triplet transient absorption was recorded in an Applied Photophysics LKS.60 laser flash photolysis spectrometer, with a Hewlett-Packard Infinium Oscilloscope and a Spectra-Physics Quanta-Ray GCR-130 Nd:YAG laser as excitation source. The pulse excitation was set at 355 nm.
The thermal energy released after electronic excitation was measured by time-resolved photoacoustic calorimetry using a front-face irradiation photoacoustic cell and a EKSPLA OPO model PG-122 pumped by an EKSPLA Nd:YAG. The signal detection was made using a 2.25 MHz Panametrics transducer. The excitation was at 690 nm and azulene was used as photoacoustic calorimetry reference.
as §1

[4] = Skin permeation: amount of photosensitizer in pig skin after topical formulation; format: in vitro ADME; conditions: for Concentration average: 6 experiments
Protocol: Skin permeation was evaluated using a topical formulation containing benzyl alcohol (23%), Kolliphor EL (17%), Transcutol (50%) and water (10%). The photosensitizer added to this formulation corresponded to 1.85% of the mass before its addition, and the gelling agent (Aerosil 200) added corresponded to 5% of the mass before its addition. The photosensitizer was first dissolved in Transcutol and exposed to 3 min of vortex and 5 min of ultrasounds. A mixture of benzyl alcohol and Kolliphor EL was then added. Immediately after, it was mixed in an IKA MIXER at 200 rpm for 5 min and water was added drop-by-drop for 10 min. Finally, the gelling agent, Aerosil 200, was mixed in and the microemulsion gel was obtained. Skin permeation studies were performed in pig skin using samples collected from 5 months old pigs. The hair was removed as well as the underlying fatty layer, before the permeation studies.
This example describes the permeation of carboxamide bacteriochlorin with formula IX in pig skin. The topical formulation and the animal model were described in the Materials and Methods section. The permeation was assessed both in terms of the amount of photosensitizer in the skin after designated times of contact between the topical formulation and the skin (incubation time) and in terms of the depth of the permeation in the skin.
The assessment of the amount of carboxamide bacteriochlorin with formula IX in the skin after various incubation times involved the following steps: (i) application of 0.30 ml of formulation in 1 cm^2 areas of minipig skin to make 6 independent measurements for the incubation times of 30, 60 and 120 minutes; (ii) cleaning of the surface of the skin at the end of the incubation times; (iii) cutting the skin in small pieces and maceration in 2 ml of dichloromethane with the aid of dispersing machine; (iv) extraction with 10 ml of dichloromethane in a falcon tube for six hours; (v) dilution by a factor of 5 with ethanol. The volume of 200 μl of the test solution was added in triplicate to 96 well plate and fluorescence intensity was detected using a Synergy HT microplate reader form Biotek (California, USA), with an excitation filter of 508/20 nm and emission filter of 760/35 nm, against a calibration curve. The signal of a blank obtained with the same cleaning method was subtracted from the signal of the sample and the concentration of the photosensitizer in each sample was obtained with the calibration curve. A summary of the results can be seen in Table 2.

Compound: CNC(=O)c1c2nc(c(-c3c(F)cccc3F)c3ccc(cc4nc(c(-c5c(F)cccc5F)c5ccc1[nH]5)CC4)[nH]3)CC2 [formula IX, 5-methylcarboxamide-10,20-bis-(2,6-difluorophenyl)bacteriochlorin]
- λ (wavelength of maximum infrared absorption) [1]: 734 nm
- ε (λ) molar absorption coefficient ([1]; at 734 nm): 69 10^3 M^−1 cm^−1
- ΦF fluorescence quantum yield [2]: 0.20
- τS fluorescence lifetime [2]: 3.2 ns
- τT (N2) triplet lifetime ([3]; N2-saturated ethanol): 71 ± 5 μs
- τT (air) triplet lifetime ([3]; air-saturated ethanol): 210 ns
- ΦT triplet state formation quantum yield ([3]; in ethanol): 0.45
- flux of the photosensitizer to the skin Jmax ([4]; attained in 1.5 hours, topical formulation): 4×10^−8 mol/(cm^2 h)
- Mass in the skin ([4]; incubation time 30 min): 5.41 ± 1.33 μg/cm^2
- Concentration average ([4]; incubation time 30 min): 0.909 µM
- Mass in the skin ([4]; incubation time 60 min): 19.9 ± 5.12 μg/cm^2
- Concentration average ([4]; incubation time 60 min): 3.34 µM
- Mass in the skin ([4]; incubation time 120 min): 37.2 ± 7.45 μg/cm^2
- Concentration average ([4]; incubation time 120 min): 6.26 µM
